Measured values as given in patent US20100305068A1, “COMPOUNDS AND METHODS FOR MODULATING PROTEIN TRAFFICKING” (priority 2006, published 2010).

System: pdr5 ypt1^ts cells
Experiment: microbe, parasite or virus in culture
Format: cell-based, yeast
Settings: 37° C.; for optical density, 3.13 uM / optical density, 12.5 uM / optical density, 50 uM: Table 3, background (0 uM) 0.077; for optical density, 3.13 uM: 3.13 uM compound; for optical density, 12.5 uM: 12.5 uM compound; for optical density, 50 uM: 50 uM compound; for minimal effective concentration: Saccharomyces cerevisiae, lowest concentration tested giving growth above the 0 μM background, read-out: ypt1-ts MRC (minimal rescue concentration); for minimal effective concentration / optical density, ypt1-ts, 0.39 / optical density, ypt1-ts, 0.78 / optical density, ypt1-ts, 1.56 / optical density, ypt1-ts, 3.13 / optical density, ypt1-ts, 6.25 / optical density, ypt1-ts, 12.5 / optical density, ypt1-ts, 25: Table 2; for optical density, ypt1-ts, 0.39: 0.39 μM compound; for optical density, ypt1-ts, 0.39 / optical density, ypt1-ts, 0.78 / optical density, ypt1-ts, 1.56 / optical density, ypt1-ts, 3.13 / optical density, ypt1-ts, 6.25 / optical density, ypt1-ts, 12.5 / optical density, ypt1-ts, 25: background (0 μM) 0.058; for optical density, ypt1-ts, 0.78: 0.78 μM compound; for optical density, ypt1-ts, 1.56: 1.56 μM compound; for optical density, ypt1-ts, 3.13: 3.13 μM compound; for optical density, ypt1-ts, 6.25: 6.25 μM compound; for optical density, ypt1-ts, 12.5: 12.5 μM compound; for optical density, ypt1-ts, 25: 25 μM compound
How it was run: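 Whole-cell yeast growth-rescue screen: pdr5 ypt1^ts cells (efflux pump inactivated), growth-arrested at 37° C., cultured with compounds at 37° C. Restoration of growth read by optical density.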

SMILES: CC(=O)O[C@]1(C(C)=O)CC[C@H]2[C@@H]3C=C(C)C4=CC(=O)CC[C@]4(C)[C@H]3CC[C@@]21C [MEGESTROL ACETATE, reference compound]
- optical density, 3.13 uM: 0.222
- optical density, 12.5 uM: 0.341
- optical density, 50 uM: 0.202

SMILES: COc1c2occc2cc2ccc(=O)oc12 [METHOX- SALEN, reference compound]
- optical density, 3.13 uM: 0.124
- optical density, 12.5 uM: 0.25
- optical density, 50 uM: 0.38

SMILES: COc1cc(C)c2c(=O)cc(-c3ccccc3)oc2c1 [METHOXYVONE]
- minimal effective concentration: 12.5 µM
- optical density, ypt1-ts, 0.39: 0.095
- optical density, ypt1-ts, 0.78: 0.09
- optical density, ypt1-ts, 1.56: 0.09
- optical density, ypt1-ts, 3.13: 0.105
- optical density, ypt1-ts, 6.25: 0.114
- optical density, ypt1-ts, 12.5: 0.142
- optical density, ypt1-ts, 25: 0.258

SMILES: CCOC(=O)c1c(C)cc(O)c(C)c1O [METHYL[…], ETHYL ESTER]
- minimal effective concentration: 25 µM
- optical density, ypt1-ts, 0.39: 0.082
- optical density, ypt1-ts, 0.78: 0.073
- optical density, ypt1-ts, 1.56: 0.072
- optical density, ypt1-ts, 3.13: 0.084
- optical density, ypt1-ts, 6.25: 0.097
- optical density, ypt1-ts, 12.5: 0.119
- optical density, ypt1-ts, 25: 0.259

SMILES: CCN(CC)CCNC(=O)c1cc(Cl)c(N)cc1OC.Cl [METO- […]- CHLORIDE, reference compound]
- optical density, 3.13 uM: 0.099
- optical density, 12.5 uM: 0.158
- optical density, 50 uM: 0.555

SMILES: COC(=O)C[C@H]1C(C)(C)C(=O)[C@@H]2CC3=C4CC(=O)O[C@@H](c5ccoc5)[C@]4(C)CCC3[C@]1(C)C2=O (some centres unmarked) [MEXICANOLIDE]
- minimal effective concentration: 6.25 µM
- optical density, ypt1-ts, 0.39: 0.092
- optical density, ypt1-ts, 0.78: 0.069
- optical density, ypt1-ts, 1.56: 0.076
- optical density, ypt1-ts, 3.13: 0.105
- optical density, ypt1-ts, 6.25: 0.216
- optical density, ypt1-ts, 12.5: 0.377
- optical density, ypt1-ts, 25: 0.573

SMILES: O=C1c2c(O)ccc(O)c2C(=O)c2c(NCCNCCO)ccc(NCCNCCO)c21 [MITO- XANTHRONE HYDRO- CHLORIDE, reference compound]
- optical density, 3.13 uM: 0.149
- optical density, 12.5 uM: 0.132
- optical density, 50 uM: 0.313

SMILES: CCOC(=O)C1=C(C)NC(C)=C(C(=O)OC)C1c1cccc([N+](=O)[O-])c1 (centres unmarked) [NITRENDIPINE, reference compound]
- minimal effective concentration: 3.13 µM
- optical density, ypt1-ts, 0.39: 0.11
- optical density, ypt1-ts, 0.78: 0.089
- optical density, ypt1-ts, 1.56: 0.103
- optical density, ypt1-ts, 3.13: 0.143
- optical density, ypt1-ts, 6.25: 0.309
- optical density, ypt1-ts, 12.5: 0.403
- optical density, ypt1-ts, 25: 0.481

SMILES: COc1ccc(CC(=O)c2ccc(O)cc2O)cc1 [ONONETIN]
- minimal effective concentration: 6.25 µM
- optical density, ypt1-ts, 0.39: 0.097
- optical density, ypt1-ts, 0.78: 0.08
- optical density, ypt1-ts, 1.56: 0.096
- optical density, ypt1-ts, 3.13: 0.111
- optical density, ypt1-ts, 6.25: 0.14
- optical density, ypt1-ts, 12.5: 0.3
- optical density, ypt1-ts, 25: 0.618

SMILES: Clc1ccc(Cl)cc1 [PARA- DICHLORO- BENZENE]
- optical density, 3.13 uM: 0.169
- optical density, 12.5 uM: 0.28
- optical density, 50 uM: 0.202

SMILES: COc1c(C(C)C)oc2cc3oc(=O)ccc3cc12 [PEUCEDANIN]
- optical density, 3.13 uM: 0.138
- optical density, 12.5 uM: 0.25
- optical density, 50 uM: 0.461

SMILES: CCCCC1C(=O)N(c2ccccc2)N(c2ccccc2)C1=O [PHENYLBUTAZONE, reference compound]
- minimal effective concentration: 6.25 µM
- optical density, ypt1-ts, 0.39: 0.1
- optical density, ypt1-ts, 0.78: 0.084
- optical density, ypt1-ts, 1.56: 0.094
- optical density, ypt1-ts, 3.13: 0.11
- optical density, ypt1-ts, 12.5: 0.227
- optical density, ypt1-ts, 25: 0.452

SMILES: O=C(/C=C/C=C/c1ccc2c(c1)OCO2)N1CCCCC1 [PIPERINE]
- optical density, 3.13 uM: 0.107
- optical density, 12.5 uM: 0.135
- optical density, 50 uM: 0.377

SMILES: CC(C)=CCOc1cc2oc(=O)ccc2cc1O [PRENYLETIN]
- minimal effective concentration: 25 µM
- optical density, ypt1-ts, 0.39: 0.087
- optical density, ypt1-ts, 0.78: 0.072
- optical density, ypt1-ts, 1.56: 0.07
- optical density, ypt1-ts, 3.13: 0.087
- optical density, ypt1-ts, 6.25: 0.09
- optical density, ypt1-ts, 12.5: 0.121
- optical density, ypt1-ts, 25: 0.292

SMILES: COC(=O)[C@]1(C)CC[C@]2(C)CC[C@]3(C)C4=CC=C5C(=CC(=O)C(O)=C5C)[C@]4(C)CC[C@@]3(C)[C@@H]2C1 [PRISTIMERIN]
- optical density, ypt1-ts, 0.39: 0.534
- optical density, ypt1-ts, 0.78: 0.332
- optical density, ypt1-ts, 1.56: 0.669
- optical density, ypt1-ts, 3.13: 0.703
- optical density, ypt1-ts, 6.25: 0.68
- optical density, ypt1-ts, 12.5: 0.676
- optical density, ypt1-ts, 25: 0.677

SMILES: COC(=O)[C@]1(C)CC[C@]2(C)CC[C@]3(C)C4=CCc5c(cc(O)c(O)c5C)[C@]4(C)CC[C@@]3(C)[C@@H]2C1 [PRISTIMEROL]
- minimal effective concentration: 6.25 µM
- optical density, ypt1-ts, 0.39: 0.11
- optical density, ypt1-ts, 0.78: 0.079
- optical density, ypt1-ts, 1.56: 0.101
- optical density, ypt1-ts, 3.13: 0.114
- optical density, ypt1-ts, 6.25: 0.168
- optical density, ypt1-ts, 12.5: 0.362
- optical density, ypt1-ts, 25: 0.591

SMILES: CC(=O)[C@H]1CC[C@H]2[C@@H]3CCC4=CC(=O)CC[C@]4(C)[C@H]3CC[C@]12C [PROGESTERONE, reference compound]
- minimal effective concentration: 12.5 µM
- optical density, ypt1-ts, 0.39: 0.089
- optical density, ypt1-ts, 0.78: 0.083
- optical density, ypt1-ts, 1.56: 0.091
- optical density, ypt1-ts, 3.13: 0.098
- optical density, ypt1-ts, 6.25: 0.12
- optical density, ypt1-ts, 12.5: 0.15
- optical density, ypt1-ts, 25: 0.316

SMILES: CC(C)N(C(=O)CCl)c1ccccc1 [PROPACHLOR]
- minimal effective concentration: 6.25 µM
- optical density, ypt1-ts, 0.39: 0.101
- optical density, ypt1-ts, 0.78: 0.085
- optical density, ypt1-ts, 1.56: 0.098
- optical density, ypt1-ts, 3.13: 0.121
- optical density, ypt1-ts, 6.25: 0.141
- optical density, ypt1-ts, 12.5: 0.177
- optical density, ypt1-ts, 25: 0.184

SMILES: CCC(=O)Nc1ccc(Cl)c(Cl)c1 [PROPANIL]
- minimal effective concentration: 12.5 µM
- optical density, ypt1-ts, 0.39: 0.084
- optical density, ypt1-ts, 0.78: 0.072
- optical density, ypt1-ts, 1.56: 0.076
- optical density, ypt1-ts, 3.13: 0.097
- optical density, ypt1-ts, 6.25: 0.108
- optical density, ypt1-ts, 12.5: 0.217
- optical density, ypt1-ts, 25: 0.564

SMILES: CNC(=O)Oc1ccccc1OC(C)C [PROPOXUR]
- optical density, 3.13 uM: 0.194
- optical density, 12.5 uM: 0.289
- optical density, 50 uM: 0.231

SMILES: C/C=C(\C)C(=O)O[C@@H]1c2c(ccc3ccc(=O)oc23)OC(C)(C)[C@@H]1OC(C)=O [PTERYXIN]
- minimal effective concentration: 6.25 µM
- optical density, ypt1-ts, 0.39: 0.103
- optical density, ypt1-ts, 0.78: 0.078
- optical density, ypt1-ts, 1.56: 0.096
- optical density, ypt1-ts, 3.13: 0.124
- optical density, ypt1-ts, 6.25: 0.134
- optical density, ypt1-ts, 12.5: 0.26
- optical density, ypt1-ts, 25: 0.479

SMILES: COc1ccc(/C=C/c2cc(O)cc(O)c2)cc1 [RESVERA- TROL 4′- METHYL ETHER]
- optical density, 3.13 uM: 0.08
- optical density, 12.5 uM: 0.103
- optical density, 50 uM: 0.331

SMILES: C[n+]1cc2c3c(ccc2c2ccc4cc5c(cc4c21)OCO5)OCO3.O=S(=O)([O-])O [SANGUINARINE SULFATE]
- minimal effective concentration: 12.5 µM
- optical density, ypt1-ts, 0.39: 0.092
- optical density, ypt1-ts, 0.78: 0.076
- optical density, ypt1-ts, 1.56: 0.077
- optical density, ypt1-ts, 3.13: 0.089
- optical density, ypt1-ts, 6.25: 0.111
- optical density, ypt1-ts, 12.5: 0.165
- optical density, ypt1-ts, 25: 0.345

SMILES: CC1=CC(=O)[C@H]2C(C)(C)CCC[C@]2(C)[C@@]1(O)CCc1ccoc1 [SOLIDAGENONE]
- minimal effective concentration: 6.25 µM
- optical density, ypt1-ts, 0.39: 0.092
- optical density, ypt1-ts, 0.78: 0.077
- optical density, ypt1-ts, 1.56: 0.086
- optical density, ypt1-ts, 3.13: 0.11
- optical density, ypt1-ts, 6.25: 0.141
- optical density, ypt1-ts, 12.5: 0.439
- optical density, ypt1-ts, 25: 0.62

SMILES: CCCCC1(COC(=O)CCC(=O)O)C(=O)N(c2ccccc2)N(c2ccccc2)C1=O [SUXIBUZONE, reference compound]
- minimal effective concentration: 3.13 µM
- optical density, ypt1-ts, 0.39: 0.101
- optical density, ypt1-ts, 0.78: 0.078
- optical density, ypt1-ts, 1.56: 0.093
- optical density, ypt1-ts, 3.13: 0.127
- optical density, ypt1-ts, 6.25: 0.173
- optical density, ypt1-ts, 12.5: 0.329
- optical density, ypt1-ts, 25: 0.536

SMILES: COC(=O)C(O)[C@H]1C(C)(C)[C@@H](OC(C)=O)[C@@H]2CC3=C4CC(=O)O[C@@H](c5ccoc5)[C@]4(C)CCC3[C@]1(C)C2=O (some centres unmarked) [SWIETENOLIDE- 3-ACETATE]
- optical density, 3.13 uM: 0.425
- optical density, 12.5 uM: 0.629
- optical density, 50 uM: 0.619

SMILES: C=CCC1(C(C)CCC)C(=O)N=C([S-])NC1=O.[Na+] (centres unmarked) [THIAMYLAL SODIUM, reference compound]
- minimal effective concentration: 12.5 µM
- optical density, ypt1-ts, 0.39: 0.089
- optical density, ypt1-ts, 0.78: 0.071
- optical density, ypt1-ts, 1.56: 0.089
- optical density, ypt1-ts, 3.13: 0.101
- optical density, ypt1-ts, 6.25: 0.103
- optical density, ypt1-ts, 12.5: 0.162
- optical density, ypt1-ts, 25: 0.209

SMILES: CC1(C)C(=O)C=C[C@]2(C)C3CC[C@@]4(C)[C@H](c5ccoc5)C[C@H]5O[C@]54C3[C@H](O)CC12 (some centres unmarked) [TRI- CHILENONE]
- optical density, 3.13 uM: 0.119
- optical density, 12.5 uM: 0.283
- optical density, 50 uM: 0.462
